This is an account of results in patent publication US20090209610A1, “Polymorphic form of 6-(4-chlorophenyl)-2,2-dimethyl-7-Phenyl-2,3-Dihydro-1h-Pyrrolizin-5-Ylacetic Acid” (Merckle GmgH, priority 2005, published 2009).

Molecules are shown by their SMILES.

A short description of series [1]: particle size measurement by laser diffraction (Helios-Sympatec). The series is classed as physicochemical. As to conditions: for Particle size distribution: Table 3, overall range. The protocol:
Polymorph B has a narrow particle size distribution: d10-d90=1.8 μm-15.9 μm. The average particle size is 6.7 μm. Particle size measurements were carried out by means of laser diffraction spectra using the Helios-Sympatec system: dry disperser RODOS; focal length 50 mm.

For series [2], the target named is cyclooxygenase (CO) and lipoxygenase (LO). Description: inhibitory effect on the enzymes cyclooxygenase and lipoxygenase. The series is classed as biochemical. As to conditions: ratio of IC50 lipoxygenase to IC50 cyclooxygenase. The text has this: It is notable for a strong analgesic effect and for a similar inhibitory effect on the enzymes cyclooxygenase (CO) and lipoxygenase (LO) (IC50LO/IC50CO˜1). It can therefore be used in the treatment of disorders associated with a change in arachidonic acid metabolism. Particular mention should be made of rheumatoid diseases and the prevention of allergy-induced disorders. […] In addition, it can be used for the treatment of hypercholesterolaemia.

Series [3] is described as follows: stability of the crystalline form during drying and storage, chemical stability. Type of series: physicochemical. The text has this:
Polymorph B has a crystalline structure and high purity. Owing to the crystalline structure, polymorph B is stable during drying and storage. No phase transitions and no secondary aggregations are to be observed.
Surface phenomena such as electrostatic charging, adhesion, adsorption etc. occur to a distinctly smaller extent by comparison with polymorph A. The crystal structure additionally results in a high chemical stability. Owing to the narrow particle size distribution compared with polymorph A, it is possible to employ polymorph B directly for producing pharmaceutical formulations. An additional grinding step is unnecessary.

For the molecule `CC1(C)Cc2c(-c3ccccc3)c(-c3ccc(Cl)cc3)c(CC(=O)O)n2C1` [Polymorph A, 6-(4-chlorophenyl)-2,2-dimethyl-7-phenyl-2,3-dihydro-1H-pyrrolizin-5-ylacetic acid], in series [1], the Particle size distribution was 2-500 μm.
Consider `CC1(C)Cc2c(-c3ccccc3)c(-c3ccc(Cl)cc3)c(CC(=O)O)n2C1` [Polymorph B, 6-(4-chlorophenyl)-2,2-dimethyl-7-phenyl-2,3-dihydro-1H-pyrrolizin-5-ylacetic acid], for which the IC50LO/IC50CO in series [2] was around 1. In series [3] (no phase transitions and no secondary aggregations observed), the “stability during drying and storage” value was “stable”. Besides, in series [3] (resulting from the crystal structure), the chemical stability result is recorded as “high”. Moreover, the Particle size distribution in series [1] was 0.5-70 μm. Further, in series [1] (laser diffraction), the average particle size is 6.7 μm. Moreover, in series [1] (laser diffraction, dry disperser RODOS, focal length 50 mm), the “particle size distribution d10” value came out at 1.8 μm.
